Conditions: for mass density: Vibrating tube method

FC(F)=C(F)C(F)(F)F [hexafluoropropene]
Conditions	mass density [kg/m3]	vapor or sublimation pressure [kPa]
283.17 K, 6464.6 kPa, Liquid	1420.83	–
283.17 K, 6531.5 kPa, Liquid	1421.22	–
283.17 K, 6599.8 kPa, Liquid	1421.62	–
283.17 K, 6668.2 kPa, Liquid	1422.01	–
283.17 K, 6734.8 kPa, Liquid	1422.36	–
283.17 K, 6802 kPa, Liquid	1422.82	–
283.17 K, 6878.8 kPa, Liquid	1423.17	–
283.17 K, 6945.1 kPa, Liquid	1423.6	–
283.17 K, 7018.8 kPa, Liquid	1423.92	–
283.17 K, 7085.3 kPa, Liquid	1424.29	–
283.17 K, 7154.4 kPa, Liquid	1424.62	–
283.17 K, 7220.3 kPa, Liquid	1425.09	–
283.17 K, 7293 kPa, Liquid	1425.48	–
283.17 K, 7359.6 kPa, Liquid	1425.9	–
283.17 K, 7428.2 kPa, Liquid	1426.22	–
283.17 K, 7493.3 kPa, Liquid	1426.61	–
283.17 K, 7562.9 kPa, Liquid	1426.95	–
283.17 K, 7634.7 kPa, Liquid	1427.34	–
283.17 K, 7780.3 kPa, Liquid	1428.05	–
283.17 K, 7854.7 kPa, Liquid	1428.44	–
283.17 K, 7922.9 kPa, Liquid	1428.82	–
283.17 K, 7991.9 kPa, Liquid	1429.21	–
283.17 K, 8053 kPa, Liquid	1429.55	–
283.17 K, 8093.3 kPa, Liquid	1429.79	–
283.17 K, 8134.7 kPa, Liquid	1429.94	–
283.17 K, 8175.7 kPa, Liquid	1430.23	–
283.17 K, 8222.2 kPa, Liquid	1430.51	–
283.17 K, 8262.6 kPa, Liquid	1430.66	–
283.17 K, 8310.9 kPa, Liquid	1430.87	–
283.17 K, 8353.2 kPa, Liquid	1431.08	–
283.17 K, 8393.4 kPa, Liquid	1431.32	–
283.17 K, 8434 kPa, Liquid	1431.55	–
283.17 K, 8474.2 kPa, Liquid	1431.73	–
283.17 K, 8517.4 kPa, Liquid	1432.02	–
283.17 K, 8563.4 kPa, Liquid	1432.23	–
283.17 K, 8609.7 kPa, Liquid	1432.53	–
283.17 K, 8651.7 kPa, Liquid	1432.69	–
283.17 K, 8693.8 kPa, Liquid	1432.88	–
283.17 K, 8735.7 kPa, Liquid	1433.12	–
283.17 K, 8779.9 kPa, Liquid	1433.38	–
283.17 K, 8821.1 kPa, Liquid	1433.52	–
283.17 K, 8871.9 kPa, Liquid	1433.93	–
283.17 K, 8912.3 kPa, Liquid	1434	–
283.17 K, 8953.6 kPa, Liquid	1434.33	–
283.17 K, 8996.5 kPa, Liquid	1434.45	–
283.17 K, 9044.1 kPa, Liquid	1434.75	–
283.17 K, 9090.4 kPa, Liquid	1435.02	–
283.17 K, 9132.2 kPa, Liquid	1435.25	–
283.17 K, 9176.2 kPa, Liquid	1435.35	–
283.17 K, 9217 kPa, Liquid	1435.66	–
283.17 K, 9261 kPa, Liquid	1435.85	–
283.17 K, 9303.9 kPa, Liquid	1436.08	–
283.17 K, 9347.1 kPa, Liquid	1436.32	–
283.17 K, 9392.3 kPa, Liquid	1436.51	–
283.17 K, 9439 kPa, Liquid	1436.78	–
283.17 K, 9480.9 kPa, Liquid	1436.91	–
283.17 K, 9522.3 kPa, Liquid	1437.19	–
283.17 K, 9569.5 kPa, Liquid	1437.37	–
283.17 K, 9612.2 kPa, Liquid	1437.57	–
283.17 K, 9656.4 kPa, Liquid	1437.81	–
283.17 K, 9696.9 kPa, Liquid	1438.08	–
283.17 K, 9737.5 kPa, Liquid	1438.29	–
283.17 K, 9778 kPa, Liquid	1438.42	–
283.17 K, 9820 kPa, Liquid	1438.63	–
283.17 K, 9860.9 kPa, Liquid	1438.96	–
283.17 K, 9908.7 kPa, Liquid	1439.08	–
283.17 K, 9991.1 kPa, Liquid	1439.48	–
283.23 K, Liquid, Closed cell (Static) method	–	459
283.24 K, 3.6 kPa, Fluid (supercritical or subcritical phases)	0.14	–
283.24 K, 4 kPa, Fluid (supercritical or subcritical phases)	0.18	–
283.24 K, 4.5 kPa, Fluid (supercritical or subcritical phases)	0.18	–
283.24 K, 5.1 kPa, Fluid (supercritical or subcritical phases)	0.27	–
283.24 K, 6 kPa, Fluid (supercritical or subcritical phases)	0.3	–
283.24 K, 7.2 kPa, Fluid (supercritical or subcritical phases)	0.31	–
283.24 K, 8.2 kPa, Fluid (supercritical or subcritical phases)	0.4	–
283.24 K, 9.1 kPa, Fluid (supercritical or subcritical phases)	0.47	–
283.24 K, 9.8 kPa, Fluid (supercritical or subcritical phases)	0.52	–
283.24 K, 10.8 kPa, Fluid (supercritical or subcritical phases)	0.56	–
283.24 K, 11.8 kPa, Fluid (supercritical or subcritical phases)	0.65	–
283.24 K, 12.6 kPa, Fluid (supercritical or subcritical phases)	0.7	–
283.24 K, 13.4 kPa, Fluid (supercritical or subcritical phases)	0.85	–
283.24 K, 14.4 kPa, Fluid (supercritical or subcritical phases)	0.85	–
283.24 K, 15.2 kPa, Fluid (supercritical or subcritical phases)	0.87	–
283.24 K, 16 kPa, Fluid (supercritical or subcritical phases)	0.88	–
283.24 K, 17 kPa, Fluid (supercritical or subcritical phases)	0.98	–
283.24 K, 18.1 kPa, Fluid (supercritical or subcritical phases)	1.01	–
283.24 K, 19.2 kPa, Fluid (supercritical or subcritical phases)	1.12	–
283.24 K, 20.3 kPa, Fluid (supercritical or subcritical phases)	1.19	–
283.24 K, 21.5 kPa, Fluid (supercritical or subcritical phases)	1.25	–
283.24 K, 22.7 kPa, Fluid (supercritical or subcritical phases)	1.31	–
283.24 K, 23.9 kPa, Fluid (supercritical or subcritical phases)	1.47	–
283.24 K, 25.1 kPa, Fluid (supercritical or subcritical phases)	1.47	–
283.24 K, 26.3 kPa, Fluid (supercritical or subcritical phases)	1.57	–
283.24 K, 27.6 kPa, Fluid (supercritical or subcritical phases)	1.66	–
283.24 K, 28.8 kPa, Fluid (supercritical or subcritical phases)	1.74	–
283.24 K, 30 kPa, Fluid (supercritical or subcritical phases)	1.8	–
283.24 K, 31.2 kPa, Fluid (supercritical or subcritical phases)	1.87	–
283.24 K, 32.6 kPa, Fluid (supercritical or subcritical phases)	1.92	–
283.24 K, 33.8 kPa, Fluid (supercritical or subcritical phases)	2.04	–
283.24 K, 35.1 kPa, Fluid (supercritical or subcritical phases)	2.16	–
283.24 K, 36.3 kPa, Fluid (supercritical or subcritical phases)	2.23	–
283.24 K, 37.6 kPa, Fluid (supercritical or subcritical phases)	2.25	–
283.24 K, 38.8 kPa, Fluid (supercritical or subcritical phases)	2.33	–
283.24 K, 40.1 kPa, Fluid (supercritical or subcritical phases)	2.39	–
283.24 K, 41.4 kPa, Fluid (supercritical or subcritical phases)	2.51	–
283.24 K, 42.6 kPa, Fluid (supercritical or subcritical phases)	2.65	–
283.24 K, 43.9 kPa, Fluid (supercritical or subcritical phases)	2.74	–
283.24 K, 45.1 kPa, Fluid (supercritical or subcritical phases)	2.76	–
283.24 K, 46.4 kPa, Fluid (supercritical or subcritical phases)	2.84	–
283.24 K, 47.7 kPa, Fluid (supercritical or subcritical phases)	2.93	–
283.24 K, 49 kPa, Fluid (supercritical or subcritical phases)	3.04	–
283.24 K, 50.2 kPa, Fluid (supercritical or subcritical phases)	3.09	–
283.24 K, 52.8 kPa, Fluid (supercritical or subcritical phases)	3.28	–
283.24 K, 55.4 kPa, Fluid (supercritical or subcritical phases)	3.44	–
283.24 K, 58.1 kPa, Fluid (supercritical or subcritical phases)	3.61	–
283.24 K, 60.8 kPa, Fluid (supercritical or subcritical phases)	3.81	–
283.24 K, 63.5 kPa, Fluid (supercritical or subcritical phases)	3.98	–
283.24 K, 69.3 kPa, Fluid (supercritical or subcritical phases)	4.38	–
283.24 K, 72.2 kPa, Fluid (supercritical or subcritical phases)	4.52	–
283.24 K, 75.2 kPa, Fluid (supercritical or subcritical phases)	4.75	–
283.24 K, 78.1 kPa, Fluid (supercritical or subcritical phases)	4.95	–
283.24 K, 81.2 kPa, Fluid (supercritical or subcritical phases)	5.2	–
283.24 K, 84.2 kPa, Fluid (supercritical or subcritical phases)	5.34	–
283.24 K, 87.2 kPa, Fluid (supercritical or subcritical phases)	5.58	–
283.24 K, 90.3 kPa, Fluid (supercritical or subcritical phases)	5.77	–
283.24 K, 93.4 kPa, Fluid (supercritical or subcritical phases)	6	–
283.24 K, 96.5 kPa, Fluid (supercritical or subcritical phases)	6.19	–
283.24 K, 99.6 kPa, Fluid (supercritical or subcritical phases)	6.44	–
283.24 K, 102 kPa, Fluid (supercritical or subcritical phases)	6.55	–
283.24 K, 104.4 kPa, Fluid (supercritical or subcritical phases)	6.69	–
283.24 K, 106.7 kPa, Fluid (supercritical or subcritical phases)	6.88	–
283.24 K, 109.2 kPa, Fluid (supercritical or subcritical phases)	7.05	–
283.24 K, 111.6 kPa, Fluid (supercritical or subcritical phases)	7.23	–

Source: the NIST ThermoML archive (doi:10.1021/je900596d)
